In brackets after ≈: the same amount, converted by molar mass. Where two headings read alike, the source gives them in different places. Where a SMILES comes first, the peptide text is derived from it. The star is where a group is joined. Myristoyl = CCCCCCCCCCCCCC(=O)*; Lauroyl = CCCCCCCCCCCC(=O)*
Columns and labels:
Assay type in all cases: cell-based
[1] = tested on: Pseudomonas aeruginosa (ATCC 9027); details: ATCC 9027, 24 h
[2] = tested on: Proteus vulgaris (PCM 2668); details: for MBC Proteus vulgaris: subculture on Mueller-Hinton II Agar, 24 h 37°C
In short: (§1)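 MIC in μg/mL, read as the lowest lipopeptide level with no observable growth. Microbroth dilution followed CLSI guidance, using MH broth, 10^5 cfu/mL and 18 h at 37°C for bacterial strains, or Sabouraud Dextrose broth, 10^3 cfu/mL and 48 h at 25°C for yeasts.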

[3] = tested on: Candida tropicalis (PCM 2681); details: PCM 2681, 48 h
In short: as §1

[4] = tested on: Candida albicans (ATCC 10231); details: ATCC 10231, 48 h
In short: as §1

[5] = tested on: Staphylococcus epidermidis (PCM 2118); details: for MIC Staphylococcus epidermidis: PCM 2118, 18 h; for MBC Staphylococcus epidermidis: PCM 2118, 24 h
In short: (§2)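 Lowest lipopeptide concentration (μg/mL) with no observable growth gave the MIC, alongside MBC/MFC, by CLSI microbroth dilution. Fungi: Sabouraud dextrose broth, 10^3 cfu/mL start, 25°C for 48 h; bacteria: MH broth, 10^5 cfu/mL, 37°C for 18 h. Run in triplicate, three separate days.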

[6] = tested on: Pseudomonas aeruginosa (ATCC 9027); details: ATCC 9027, 18 h
In short: as §1

[7] = tested on: Escherichia coli (ATCC 25922); details: for MIC Escherichia coli / MBC Escherichia coli, lipopeptides without TFA counter ion / MIC Escherichia coli, lipopeptides without TFA counter ion: ATCC 25922, 18 h; for MBC Escherichia coli: ATCC 25922, 24 h
In short: as §1

[8] = tested on: Klebsiella pneumoniae (ATCC 700603); details: for MIC Klebsiella pneumoniae / MBC Klebsiella pneumoniae, lipopeptides without TFA counter ion / MIC Klebsiella pneumoniae, lipopeptides without TFA counter ion: ATCC 700603, 18 h; for MBC Klebsiella pneumoniae: ATCC 700603, 24 h
In short: as §1

[9] = tested on: Staphylococcus aureus (ATCC 25923); details: for MIC Staphylococcus aureus / MBC Staphylococcus aureus, lipopeptides without TFA counter ion / MIC Staphylococcus aureus, lipopeptides without TFA counter ion: ATCC 25923, 18 h; for MBC Staphylococcus aureus: ATCC 25923, 24 h
In short: as §1

[10] = tested on: Enterococcus faecalis (ATCC 29212); details: for MIC Enterococcus fecalis / MBC Enterococcus fecalis, lipopeptides without TFA counter ion / MIC Enterococcus fecalis, lipopeptides without TFA counter ion: ATCC 29212, 18 h; for MBC Enterococcus fecalis: ATCC 29212, 24 h
In short: as §2

[11] = tested on: Aspergillus brasiliensis (ATCC 16404); details: ATCC 16404, 48 h
In short: as §2

[12] = tested on: Bacillus subtilis (ATCC 6633); details: for MIC Bacillus subtillis: ATCC 6633, 18 h; for MBC Bacillus subtillis: ATCC 6633, 24 h
In short: as §2

human red blood cells = details: 1 h
Description: The hemolytic activity of the lipopeptides was determined by exposing human red blood cells (4% v/v) to tested compounds at graded concentrations. Red blood cells were obtained from a healthy donor. EDTA was used to prevent the blood clotting. The plasma was removed via centrifugation and the erythrocytes were washed three times with PBS. The red blood cells were suspended in PBS and incubated with different concentrations of lipopeptides at 37°C for 1 h and centrifuged for 5 min at 1000 × g. The supernatants were transferred to a sterile 96-well plate and hemoglobin release was measured with an Epoch microplate spectrophotometer (BioTek, USA) by recording the absorbance at 550 nm. A 0.1% Triton X-100 solution was used as the positive control (100% of hemolysis) and pure PBS as the negative (0% of hemolysis). Minimum hemolytic concentration (MHC) was taken as the lowest concentration which induced 10% of hemolysis.

[13] = tested on: Proteus vulgaris (PCM 2668); details: 24 h
[14] = tested on: Candida albicans (ATCC 10231)

Row | SMILES | MBC Pseudomonas aeruginosa [1] [µg/mL] | MFC Candida tropicalis [3] [µg/mL] | MIC Candida tropicalis [3] [µg/mL] | MFC Candida albicans [4] [µg/mL] | MIC Candida albicans [4] [µg/mL] | MIC Staphylococcus epidermidis [5] [µg/mL] | MBC Staphylococcus epidermidis [5] [µg/mL] | MIC Pseudomonas aeruginosa [6] [µg/mL] | MIC Escherichia coli [7] [µg/mL] | MBC Escherichia coli [7] [µg/mL] | MIC Klebsiella pneumoniae [8] [µg/mL] | MBC Klebsiella pneumoniae [8] [µg/mL] | MIC Staphylococcus aureus [9] [µg/mL] | MBC Staphylococcus aureus [9] [µg/mL] | MIC Enterococcus fecalis [10] [µg/mL] | MBC Enterococcus fecalis [10] [µg/mL] | MFC Aspergillus brasiliensis [11] [µg/mL] | MIC Aspergillus brasiliensis [11] [µg/mL] | MIC Bacillus subtillis [12] [µg/mL] | MBC Bacillus subtillis [12] [µg/mL] | further results
1 | CCCCCCCCCCCC(=O)N[C@@H](CCCCN)C(N)=O [C12-K-NH2] | 256 (≈ 782 µM) | 512 (≈ 1560 µM) | 256 (≈ 782 µM) | 512 (≈ 1560 µM) | 256 (≈ 782 µM) | 128 (≈ 391 µM) | 128 (≈ 391 µM) | 128 (≈ 391 µM) | 256 (≈ 782 µM) | 256 (≈ 782 µM) | 256 (≈ 782 µM) | 256 (≈ 782 µM) | 256 (≈ 782 µM) | 256 (≈ 782 µM) | 256 (≈ 782 µM) | 256 (≈ 782 µM) | 512 (≈ 1560 µM) | 256 (≈ 782 µM) | 128 (≈ 391 µM) | 256 (≈ 782 µM) | MIC Proteus vulgaris ([2]; 18 h): >512 µg/mL; MBC Proteus vulgaris ([2]; PCM 2668, TFA salt, triplicate): >1000 µg/mL; Hemolysis HC10 (MHC), concentration of lipopeptide inducing 10% of hemolysis (human red blood cells): 1000 µg/mL
2 | CCCCCCCCCCCC(=O)N[C@@H](CCCCN)C(=O)NCC(N)=O [C12-KG-NH2] (Lauroyl-Lys-Gly-NH2) | 512 (≈ 1330 µM) | 512 (≈ 1330 µM) | 512 (≈ 1330 µM) | 512 (≈ 1330 µM) | 512 (≈ 1330 µM) | 128 (≈ 333 µM) | 128 (≈ 333 µM) | 256 (≈ 666 µM) | 256 (≈ 666 µM) | 512 (≈ 1330 µM) | 256 (≈ 666 µM) | 512 (≈ 1330 µM) | 256 (≈ 666 µM) | 512 (≈ 1330 µM) | 256 (≈ 666 µM) | 256 (≈ 666 µM) | 512 (≈ 1330 µM) | 256 (≈ 666 µM) | 128 (≈ 333 µM) | 256 (≈ 666 µM) | MBC Proteus vulgaris ([2]; PCM 2668, TFA salt, triplicate): >2000 µg/mL; Hemolysis HC10 (MHC), concentration of lipopeptide inducing 10% of hemolysis (human red blood cells): 1000 µg/mL
3 | CCCCCCCCCCCC(=O)N[C@@H](CCCCN)C(=O)NCC(=O)N[C@@H](CCCCN)C(=O)NCC(N)=O [C12-KGKG-NH2] (Lauroyl-KGKG-NH2) | 1000 (≈ 1760 µM) | 2000 (≈ 3510 µM) | 1000 (≈ 1760 µM) | 2000 (≈ 3510 µM) | 1000 (≈ 1760 µM) | 256 (≈ 449 µM) | 512 (≈ 899 µM) | 1000 (≈ 1760 µM) | 2000 (≈ 3510 µM) | 2000 (≈ 3510 µM) | 2000 (≈ 3510 µM) | 2000 (≈ 3510 µM) | 2000 (≈ 3510 µM) | 2000 (≈ 3510 µM) | 512 (≈ 899 µM) | 512 (≈ 899 µM) | 1000 (≈ 1760 µM) | 1000 (≈ 1760 µM) | 64 (≈ 112 µM) | 64 (≈ 112 µM) | MIC Proteus vulgaris ([2]; PCM 2668, TFA salt, Mueller-Hinton broth, 10^5 cfu/mL, 18 h 37°C, triplicate): >2000 µg/mL; MBC Proteus vulgaris ([2]; PCM 2668, TFA salt, triplicate): >2000 µg/mL; Hemolysis HC10 (MHC), concentration of lipopeptide inducing 10% of hemolysis (human red blood cells): 256 µg/mL
4 | CCCCCCCCCCCCCC(=O)N[C@@H](CCCCN)C(=O)NCC(N)=O [C14-KG-NH2] (Myristoyl-Lys-Gly-NH2) | 64 (≈ 155 µM) | 256 (≈ 620 µM) | 256 (≈ 620 µM) | 128 (≈ 310 µM) | 128 (≈ 310 µM) | 16 (≈ 38.8 µM) | 16 (≈ 38.8 µM) | 32 (≈ 77.6 µM) | 64 (≈ 155 µM) | 64 (≈ 155 µM) | 32 (≈ 77.6 µM) | 32 (≈ 77.6 µM) | 32 (≈ 77.6 µM) | 32 (≈ 77.6 µM) | 32 (≈ 77.6 µM) | 32 (≈ 77.6 µM) | 128 (≈ 310 µM) | 128 (≈ 310 µM) | 16 (≈ 38.8 µM) | 16 (≈ 38.8 µM) | MIC Proteus vulgaris ([2]; 18 h): >512 µg/mL; MIC Candida albicans, lipopeptides without TFA counter ion [4]: 256 µg/mL (≈ 620 µM); MBC Escherichia coli, lipopeptides without TFA counter ion [7]: 64 µg/mL (≈ 155 µM); MIC Escherichia coli, lipopeptides without TFA counter ion [7]: 64 µg/mL (≈ 155 µM); MBC Klebsiella pneumoniae, lipopeptides without TFA counter ion [8]: 64 µg/mL (≈ 155 µM); MIC Klebsiella pneumoniae, lipopeptides without TFA counter ion [8]: 32 µg/mL (≈ 77.6 µM); MBC Staphylococcus aureus, lipopeptides without TFA counter ion [9]: 32 µg/mL (≈ 77.6 µM); MIC Staphylococcus aureus, lipopeptides without TFA counter ion [9]: 32 µg/mL (≈ 77.6 µM); MBC Enterococcus fecalis, lipopeptides without TFA counter ion [10]: 32 µg/mL (≈ 77.6 µM); MIC Enterococcus fecalis, lipopeptides without TFA counter ion [10]: 32 µg/mL (≈ 77.6 µM); MBC Proteus vulgaris [13]: >512 µg/mL; MFC Candida albicans, lipopeptides without TFA counter ion [14]: 256 µg/mL (≈ 620 µM)
5 | CCCCCCCCCCCCCCCC(=O)N[C@@H](CCCCN)C(=O)N[C@@H](CCCCN)C(N)=O [C16-KK-NH2] | 8 (≈ 15.6 µM) | 128 (≈ 250 µM) | 128 (≈ 250 µM) | 128 (≈ 250 µM) | 128 (≈ 250 µM) | 4 (≈ 7.82 µM) | 4 (≈ 7.82 µM) | 8 (≈ 15.6 µM) | 8 (≈ 15.6 µM) | 8 (≈ 15.6 µM) | 16 (≈ 31.3 µM) | 16 (≈ 31.3 µM) | 8 (≈ 15.6 µM) | 8 (≈ 15.6 µM) | 8 (≈ 15.6 µM) | 8 (≈ 15.6 µM) | 128 (≈ 250 µM) | 128 (≈ 250 µM) | 4 (≈ 7.82 µM) | 4 (≈ 7.82 µM) | MIC Proteus vulgaris ([2]; 18 h): >512 µg/mL; MIC Candida albicans, lipopeptides without TFA counter ion [4]: 256 µg/mL (≈ 500 µM); MBC Escherichia coli, lipopeptides without TFA counter ion [7]: 4 µg/mL (≈ 7.82 µM); MIC Escherichia coli, lipopeptides without TFA counter ion [7]: 4 µg/mL (≈ 7.82 µM); MBC Klebsiella pneumoniae, lipopeptides without TFA counter ion [8]: 32 µg/mL (≈ 62.5 µM); MIC Klebsiella pneumoniae, lipopeptides without TFA counter ion [8]: 16 µg/mL (≈ 31.3 µM); MBC Staphylococcus aureus, lipopeptides without TFA counter ion [9]: 4 µg/mL (≈ 7.82 µM); MIC Staphylococcus aureus, lipopeptides without TFA counter ion [9]: 4 µg/mL (≈ 7.82 µM); MBC Enterococcus fecalis, lipopeptides without TFA counter ion [10]: 4 µg/mL (≈ 7.82 µM); MIC Enterococcus fecalis, lipopeptides without TFA counter ion [10]: 4 µg/mL (≈ 7.82 µM); MBC Proteus vulgaris [13]: >512 µg/mL; MFC Candida albicans, lipopeptides without TFA counter ion [14]: 256 µg/mL (≈ 500 µM)

From PMC5285354, “Cationic Net Charge and Counter Ion Type as Antimicrobial Activity Determinant Factors of Short Lipopeptides” (Frontiers in Microbiology, 2017)
